Test results as given in ChEMBL document CHEMBL5113509, “Synthesis and evaluation of 3'- and 4'-substituted cyclohexyl noviomimetics that modulate mitochondrial respiration” (Bioorg Med Chem, 2022).
One block for each compound: values may come before it. Activity calls are given as the source filed them. The rule behind the calls is not given here.

Experiments:
[1] = species: Homo sapiens; assay: Disruption of HSP90 alpha (unknown origin) and PPID (unknown origin) at 50 uM measured after 1 hr by AlphaLISA assay relative to control
[2] = system: N2a; assay: Cytoprotective activity against mouse N2a cells assessed as increase in mitochondrial ATP production at 100 to 1000 nM measured by Seahorse extracellular flux analyzer based assay; format: functional, cell-based; conditions: dose 100-1000 nM
[3] = system: N2a; assay: Cytoprotective activity against mouse N2a cells assessed as decrease in mitochondrial ATP production at 100 to 1000 nM measured by Seahorse extracellular flux analyzer based assay; format: functional, cell-based; conditions: dose 100-1000 nM

SMILES: CC(=O)NCCc1ccc(O[C@H]2CCC[C@@H](CCc3ccccc3)C2)cc1-c1cccc(F)c1
Activity [1]: > 50%
Activity [2]: Active

SMILES: O[C@H]1CC[C@@H](Oc2ccc(Cl)cc2)CC1
Activity [2]: Active

SMILES: CC(=O)NCCc1ccc(O[C@@H]2CCC[C@H](Sc3ccccc3)C2)cc1-c1cccc(F)c1
Activity [1]: > 50%
Activity [2]: Active

SMILES: CC(=O)NCCc1ccc(O[C@@H]2CCC[C@@H](Cc3ccccc3)C2)cc1-c1cccc(F)c1
Activity [1]: > 50%
Activity [2]: Active

SMILES: CC(=O)NCCc1ccc(O[C@H]2CC[C@@H](SCc3ccccc3)CC2)cc1-c1cccc(F)c1
Activity [2]: Active

SMILES: CC(=O)NCCc1ccc(O[C@H]2CCC[C@@H](SCc3ccccc3)C2)cc1-c1cccc(F)c1
Activity [2]: Active

SMILES: CC(=O)NCCc1ccc(O[C@H]2CC[C@@H](Oc3ccc(Cl)cc3Cl)CC2)cc1-c1cccc(F)c1
Activity [1]: > 50%
Activity [2]: Active

SMILES: CO[C@@H]1[C@@H](OC(N)=O)[C@@H](O)[C@H](Oc2ccc3c(O)c(NC(=O)c4ccc(O)c(CC=C(C)C)c4)c(=O)oc3c2C)OC1(C)C
Activity [2]: Active

SMILES: O[C@H]1CC[C@@H](Oc2cccc(Cl)c2)CC1
Activity [2]: Active

SMILES: CC(=O)NCCc1ccc(O[C@H]2CCC[C@@H](Nc3ccccc3)C2)cc1-c1cccc(F)c1
Activity [1]: > 80%
Activity [2]: Active

SMILES: CC(=O)NCCc1ccc(O[C@H]2CC[C@H](Oc3ccc(Cl)cc3)CC2)cc1-c1cccc(F)c1
Activity [3]: Active
Activity [1]: > 50%

SMILES: CC(=O)NCCc1ccc(O[C@H]2CC[C@@H](OCc3ccccc3)CC2)cc1-c1cccc(F)c1
Activity [2]: Active

SMILES: CC(=O)NCCc1ccc(O[C@H]2CCC[C@@H](OCc3ccccc3)C2)cc1-c1cccc(F)c1
Activity [1]: > 50%
Activity [2]: Active

SMILES: O[C@H]1CC[C@H](Oc2cccc(Cl)c2)CC1
Activity [2]: Active

SMILES: CC(=O)NCCc1ccc(O[C@H]2CCC[C@@H](Sc3ccccc3)C2)cc1-c1cccc(F)c1
Activity [1]: > 50%
Activity [2]: Active

SMILES: CC(=O)NCCc1ccc(O[C@@H]2CCC[C@@H](Oc3ccccc3)C2)cc1-c1cccc(F)c1
Activity [1]: > 50%
Activity [2]: Active

SMILES: O[C@H]1CC[C@H](Oc2ccc(Cl)cc2)CC1
Activity [2]: Active

SMILES: CC(=O)NCCc1ccc(O[C@@H]2CCC[C@@H](Nc3ccccc3)C2)cc1-c1cccc(F)c1
Activity [1]: < 50%
Activity [2]: Active

SMILES: CC(=O)NCCc1ccc(O[C@H]2CC[C@H](Oc3cccc(Cl)c3)CC2)cc1-c1cccc(F)c1
Activity [3]: Active
Activity [1]: > 50%

SMILES: CC(=O)NCCc1ccc(O[C@H]2CCC[C@@H](Oc3ccccc3)C2)cc1-c1cccc(F)c1
Activity [1]: > 50%
Activity [2]: Active

SMILES: CC(=O)NCCc1ccc(OC2CCC(Oc3ccccc3)[C@H](O)[C@@H]2O)cc1-c1cccc(F)c1 (stereo partly drawn)
Activity [2]: Active

SMILES: CC(=O)NCCc1ccc(O[C@@H]2CCC[C@@H](SCc3ccccc3)C2)cc1-c1cccc(F)c1
Activity [1]: > 50%
Activity [2]: Active

SMILES: O[C@H]1CC[C@@H](Oc2ccc(Cl)cc2Cl)CC1
Activity [2]: Active

SMILES: CC(=O)NCCc1ccc(O[C@@H]2CCC[C@@H](CCc3ccccc3)C2)cc1-c1cccc(F)c1
Activity [1]: > 50%
Activity [2]: Active

SMILES: O[C@H]1CC[C@H](Oc2ccc(Cl)cc2Cl)CC1
Activity [2]: Active

SMILES: CC(=O)NCCc1ccc(O[C@H]2CC[C@@H](Oc3cccc(Cl)c3)CC2)cc1-c1cccc(F)c1
Activity [3]: Active
Activity [1]: > 50%

SMILES: CC(=O)NCCc1ccc(O[C@H]2CC[C@@H](Oc3ccc(Cl)cc3)CC2)cc1-c1cccc(F)c1
Activity [3]: Active
Activity [1]: > 50%

SMILES: CC(=O)NCCc1ccc(O[C@@H]2CCC[C@@H](OCc3ccccc3)C2)cc1-c1cccc(F)c1
Activity [1]: < 50%
Activity [2]: Active

SMILES: CC(=O)NCCc1ccc(O[C@H]2CC[C@H](Oc3ccc(Cl)cc3Cl)CC2)cc1-c1cccc(F)c1
Activity [1]: > 50%
Activity [2]: Active

Second part, led by results:

Activity [1]: > 50%
SMILES: CC(=O)NCCc1ccc(O[C@H]2CC[C@@H](C(F)(F)Cc3ccccc3)CC2)cc1-c1cccc(F)c1
Activity [2]: Active

Activity [1]: < 50%
SMILES: CC(=O)NCCc1ccc(O[C@@H]2CCC[C@@H](N(C)c3ccccc3)C2)cc1-c1cccc(F)c1
Activity [2]: Active

Activity [1]: < 50%
SMILES: CC(=O)NCCc1ccc(O[C@H]2CC[C@@H](N(C)c3ccccc3)CC2)cc1-c1cccc(F)c1
Activity [2]: Active

Activity [1]: < 50%
SMILES: CC(=O)NCCc1ccc(O[C@H]2CC[C@H](N(C)c3ccccc3)CC2)cc1-c1cccc(F)c1
Activity [2]: Active

Activity [1]: > 50%
SMILES: CC(=O)NCCc1ccc(O[C@H]2CC[C@H](Oc3ccccc3)CC2)cc1-c1cccc(F)c1
Activity [2]: Active

Activity [1]: > 50%
SMILES: CC(=O)NCCc1ccc(O[C@H]2CC[C@H](Sc3ccccc3)CC2)cc1-c1cccc(F)c1
Activity [2]: Active

Activity [1]: > 50%
SMILES: CC(=O)NCCc1ccc(O[C@H]2CC[C@@H](Oc3ccccc3)CC2)cc1-c1cccc(F)c1
Activity [2]: Active

Activity [1]: > 50%
SMILES: CC(=O)NCCc1ccc(O[C@H]2CC[C@@H](S(=O)(=O)Cc3ccccc3)CC2)cc1-c1cccc(F)c1
Activity [2]: Active

Activity [1]: > 50%
SMILES: CC(=O)NCCc1ccc(O[C@H]2CC[C@@H](S(=O)(=O)c3ccccc3)CC2)cc1-c1cccc(F)c1
Activity [2]: Active

Activity [1]: > 50%
SMILES: CC(=O)NCCc1ccc(O[C@H]2CC[C@H](S(=O)(=O)Cc3ccccc3)CC2)cc1-c1cccc(F)c1
Activity [2]: Active

Activity [1]: > 50%
SMILES: CC(=O)NCCc1ccc(O[C@H]2CC[C@H](CCc3ccccc3)CC2)cc1-c1cccc(F)c1
Activity [2]: Active

Activity [1]: > 50%
SMILES: CC(=O)NCCc1ccc(O[C@H]2CC[C@H](Oc3ccccc3Cl)CC2)cc1-c1cccc(F)c1
Activity [2]: Active

Activity [1]: < 50%
SMILES: CC(=O)NCCc1ccc(O[C@H]2CC[C@H](SCc3ccccc3)CC2)cc1-c1cccc(F)c1
Activity [2]: Active

Activity [1]: < 50%
SMILES: CC(=O)NCCc1ccc(O[C@H]2CC[C@H](Nc3ccccc3)CC2)cc1-c1cccc(F)c1
Activity [2]: Active

Activity [1]: > 50%
SMILES: CC(=O)NCCc1ccc(O[C@H]2CC[C@@H](Oc3ccccc3Cl)CC2)cc1-c1cccc(F)c1
Activity [2]: Active

Activity [1]: > 50%
SMILES: CC(=O)NCCc1ccc(O[C@H]2CC[C@H](C(F)(F)Cc3ccccc3)CC2)cc1-c1cccc(F)c1
Activity [2]: Active

Activity [1]: > 80%
SMILES: CC(=O)NCCc1ccc(O[C@H]2CC[C@@H](Nc3ccccc3)CC2)cc1-c1cccc(F)c1
Activity [2]: Active

Activity [1]: > 50%
SMILES: CC(=O)NCCc1ccc(O[C@H]2CC[C@@H](Cc3ccccc3)CC2)cc1-c1cccc(F)c1
Activity [2]: Active

Activity [1]: > 50%
SMILES: CC(=O)NCCc1ccc(O[C@H]2CC[C@H](Cc3ccccc3)CC2)cc1-c1cccc(F)c1
Activity [2]: Active

Activity [1]: < 50%
SMILES: CC(=O)NCCc1ccc(O[C@H]2CCC[C@@H](N(C)c3ccccc3)C2)cc1-c1cccc(F)c1
Activity [2]: Active

Activity [1]: > 50%
SMILES: CC(=O)NCCc1ccc(O[C@H]2CC[C@@H](Sc3ccccc3)CC2)cc1-c1cccc(F)c1
Activity [2]: Active

Activity [1]: > 50%
SMILES: CC(=O)NCCc1ccc(O[C@H]2CC[C@H](S(=O)(=O)c3ccccc3)CC2)cc1-c1cccc(F)c1
Activity [2]: Active

Activity [1]: > 50%
SMILES: CC(=O)NCCc1ccc(O[C@H]2CCC[C@@H](Cc3ccccc3)C2)cc1-c1cccc(F)c1
Activity [2]: Active
